Source: ChEMBL document CHEMBL1157919, “Optimization of 7-alkene-3-quinolinecarbonitriles as Src kinase inhibitors” (Bioorg Med Chem Lett, 2010)
Each block holds one molecule with its values, some of them ahead of it.

Experiments:
[1] = target: T1, Proto-oncogene tyrosine-protein kinase Src (Homo sapiens, UniProt P12931)
Description: Inhibition of human recombinant Src after 70 mins by FRET assay

[2] = target: Serine/threonine-protein kinase mTOR (Homo sapiens, UniProt P42345); assay: Inhibition of mTOR
[3] = Half life in human microsomes; assay type: ADME, Microsome
[4] = target: Tyrosine-protein kinase ABL1 (Homo sapiens, UniProt P00519); assay: Inhibition of Abl
HT-29 = assay: In vivo antitumor activity against human HT-29 cells at 150 mg/kg, po qd for 14 days measured on day 21; assay type: functional
[5] = target: RAC-alpha serine/threonine-protein kinase (Homo sapiens, UniProt P31749); assay: Inhibition of AKT
[6] = target: Mitogen-activated protein kinase kinase kinase 8 (Homo sapiens, UniProt P41279); assay: Inhibition of TPL2
[7] = Half life in nude mouse microsomes; assay type: ADME, Microsome
[8] = Inhibition of IGFR
[9] = Inhibition of IKK
[10] = Half life in rat liver microsomes; assay type: ADME, Microsome
[11] = target: T1, Proto-oncogene tyrosine-protein kinase Src; assay: Inhibition of human recombinant Src at 10 uM after 70 mins by FRET assay
[12] = Plasma concentration in nude mouse at 50 mg/kg, po after 24 hrs; assay type: ADME, organism-based; set-up: dose 50 mg/kg, route oral

T1 sequence (P12931 2-536 limits assumed): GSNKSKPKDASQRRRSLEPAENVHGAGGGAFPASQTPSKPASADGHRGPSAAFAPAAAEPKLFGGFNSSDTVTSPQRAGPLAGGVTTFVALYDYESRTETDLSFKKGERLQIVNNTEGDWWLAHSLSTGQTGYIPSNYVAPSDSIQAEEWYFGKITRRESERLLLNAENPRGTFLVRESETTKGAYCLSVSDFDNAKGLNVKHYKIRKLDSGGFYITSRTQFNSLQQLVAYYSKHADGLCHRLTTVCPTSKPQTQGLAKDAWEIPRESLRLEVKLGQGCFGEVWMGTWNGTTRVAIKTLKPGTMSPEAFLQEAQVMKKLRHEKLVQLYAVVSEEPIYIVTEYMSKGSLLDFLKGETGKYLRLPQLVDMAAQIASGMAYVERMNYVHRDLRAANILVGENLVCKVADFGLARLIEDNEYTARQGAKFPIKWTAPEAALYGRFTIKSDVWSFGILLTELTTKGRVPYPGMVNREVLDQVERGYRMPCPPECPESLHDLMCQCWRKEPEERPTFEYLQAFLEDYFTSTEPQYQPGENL
Tyrosine-protein kinase ABL1, sequence (P00519 whole entry): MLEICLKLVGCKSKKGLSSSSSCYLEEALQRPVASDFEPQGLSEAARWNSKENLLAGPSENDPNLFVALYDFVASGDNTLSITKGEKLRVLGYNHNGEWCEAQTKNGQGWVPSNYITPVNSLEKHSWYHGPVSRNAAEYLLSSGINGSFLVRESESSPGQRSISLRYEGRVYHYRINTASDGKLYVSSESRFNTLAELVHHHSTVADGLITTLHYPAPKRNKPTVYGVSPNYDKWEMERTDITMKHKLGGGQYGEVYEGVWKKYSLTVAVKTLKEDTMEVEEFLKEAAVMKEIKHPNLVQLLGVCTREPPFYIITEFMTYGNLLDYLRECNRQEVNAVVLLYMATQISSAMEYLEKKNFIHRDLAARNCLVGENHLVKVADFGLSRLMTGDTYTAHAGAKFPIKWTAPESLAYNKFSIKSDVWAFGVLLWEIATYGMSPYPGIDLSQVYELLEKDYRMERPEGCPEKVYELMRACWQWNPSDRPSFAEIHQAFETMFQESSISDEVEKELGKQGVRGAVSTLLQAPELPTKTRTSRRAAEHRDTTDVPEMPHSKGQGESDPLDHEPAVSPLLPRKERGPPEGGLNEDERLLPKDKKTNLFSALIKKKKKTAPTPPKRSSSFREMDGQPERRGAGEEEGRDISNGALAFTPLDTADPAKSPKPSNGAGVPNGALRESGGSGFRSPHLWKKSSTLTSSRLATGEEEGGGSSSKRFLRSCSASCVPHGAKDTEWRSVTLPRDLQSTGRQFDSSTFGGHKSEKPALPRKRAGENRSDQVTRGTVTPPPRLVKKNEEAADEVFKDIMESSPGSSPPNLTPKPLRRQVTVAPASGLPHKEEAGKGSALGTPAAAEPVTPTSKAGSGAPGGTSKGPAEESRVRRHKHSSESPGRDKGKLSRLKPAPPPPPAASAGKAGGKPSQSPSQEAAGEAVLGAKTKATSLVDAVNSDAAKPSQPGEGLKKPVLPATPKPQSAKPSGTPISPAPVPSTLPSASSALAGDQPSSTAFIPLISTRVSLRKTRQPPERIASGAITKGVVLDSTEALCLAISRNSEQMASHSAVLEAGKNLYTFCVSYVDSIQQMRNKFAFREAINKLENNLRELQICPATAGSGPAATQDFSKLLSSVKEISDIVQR
Mitogen-activated protein kinase kinase kinase 8, sequence (P41279 whole entry): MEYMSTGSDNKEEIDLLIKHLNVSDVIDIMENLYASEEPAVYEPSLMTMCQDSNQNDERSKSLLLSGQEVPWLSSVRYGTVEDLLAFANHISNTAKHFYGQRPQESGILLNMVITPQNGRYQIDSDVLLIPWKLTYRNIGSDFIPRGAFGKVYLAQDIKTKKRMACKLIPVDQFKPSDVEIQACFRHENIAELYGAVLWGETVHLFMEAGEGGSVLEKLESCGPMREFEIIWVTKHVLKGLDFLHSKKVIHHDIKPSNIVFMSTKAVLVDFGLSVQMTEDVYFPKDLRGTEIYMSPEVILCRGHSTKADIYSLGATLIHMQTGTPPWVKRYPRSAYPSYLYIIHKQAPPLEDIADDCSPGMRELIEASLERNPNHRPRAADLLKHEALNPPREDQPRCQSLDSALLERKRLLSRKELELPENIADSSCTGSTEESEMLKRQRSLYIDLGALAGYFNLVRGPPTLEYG
RAC-alpha serine/threonine-protein kinase, sequence (P31749 whole entry): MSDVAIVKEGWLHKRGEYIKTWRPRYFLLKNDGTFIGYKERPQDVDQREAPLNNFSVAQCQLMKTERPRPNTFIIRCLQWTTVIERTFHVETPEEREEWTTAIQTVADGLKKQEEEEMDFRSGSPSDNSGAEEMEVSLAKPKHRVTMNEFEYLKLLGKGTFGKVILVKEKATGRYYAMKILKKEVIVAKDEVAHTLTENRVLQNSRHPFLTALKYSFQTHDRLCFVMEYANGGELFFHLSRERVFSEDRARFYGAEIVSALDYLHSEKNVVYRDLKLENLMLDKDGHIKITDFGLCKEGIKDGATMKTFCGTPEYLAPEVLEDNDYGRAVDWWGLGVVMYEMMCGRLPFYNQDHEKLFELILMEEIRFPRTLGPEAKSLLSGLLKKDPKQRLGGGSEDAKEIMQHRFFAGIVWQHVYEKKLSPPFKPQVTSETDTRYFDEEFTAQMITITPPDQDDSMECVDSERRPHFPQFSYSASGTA

SMILES: COc1cc(Nc2c(C#N)cnc3cc(/C=C/CCN4CCOCC4)ccc23)c(Cl)cc1Cl
IC50 [1]: 15 nM

SMILES: COc1cc(Nc2c(C#N)cnc3cc(/C=C/CCCCN4CCOCC4)c(OC)cc23)c(Cl)cc1Cl
IC50 [1]: 18 nM

SMILES: N#Cc1cnc2ccc(/C=C/CCN3CCOCC3)cc2c1Nc1ccc(Cl)cc1Cl
IC50 [1]: 1200 nM

SMILES: COc1cc(Nc2c(C#N)cnc3cc(/C=C/CN4CCOCC4)c(OC)cc23)c(Cl)cc1Cl
IC50 [1]: 8.7 nM

SMILES: COc1cc(Nc2c(C#N)cnc3ccc(/C=C/CCN4CCOCC4)cc23)c(Cl)cc1Cl
IC50 [1]: 340 nM

SMILES: COc1cc(Nc2c(C#N)cnc3c(/C=C/CCN4CCOCC4)cccc23)c(Cl)cc1Cl
inhibition [11]: 52%

SMILES: COc1cc(Nc2c(C#N)cnc3cc(/C=C/CCCCCCCCCN4CCOCC4)c(OC)cc23)c(Cl)cc1Cl
IC50 [1]: 130 nM

SMILES: COc1cc(Nc2c(C#N)cnc3cc(OCCCN4CCN(C)CC4)c(OC)cc23)c(Cl)cc1Cl [BOSUTINIB]
T/C (HT-29): 0.43 | concentration at 24 h [12]: 40 ng/mL

SMILES: N#Cc1cnc2cc(/C=C/CCN3CCOCC3)ccc2c1Nc1ccc(Cl)cc1Cl
IC50 [1]: 41 nM

SMILES: COc1cc(Nc2c(C#N)cnc3cc(/C=C/c4cc(CN(C)C)ccn4)c(OC)cc23)c(Cl)cc1Cl
IC50 [1]: 6.8 nM

Further molecules by falling IC50 [1], results first:

IC50 [1]: 5.4 nM
SMILES: COc1cc(Nc2c(C#N)cnc3cc(/C=C/CCCN4CCOCC4)c(OC)cc23)c(Cl)cc1Cl

IC50 [1]: 4.8 nM
SMILES: COc1cc(Nc2c(C#N)cnc3cc(/C=C/CCN4CCOCC4)c(OC)cc23)c(Cl)cc1Cl

IC50 [1]: 3 nM
SMILES: COc1cc(Nc2c(C#N)cnc3cc(/C=C/c4cccc(CN(C)C)c4)c(OC)cc23)c(Cl)cc1Cl

half-life [10]: > 30 min | IC50 [1]: 2.6 nM
SMILES: COc1cc(Nc2c(C#N)cnc3cc(/C=C/CCN4CCCCC4)c(OC)cc23)c(Cl)cc1Cl

half-life [10]: > 30 min | IC50 [1]: 2.5 nM
SMILES: COc1cc(Nc2c(C#N)cnc3cc(/C=C/CCN(C)C)c(OC)cc23)c(Cl)cc1Cl

concentration at 24 h [12]: 10 ng/mL | IC50 [1]: 2.4 nM
SMILES: COc1cc(Nc2c(C#N)cnc3cc(/C=C/c4ccc(CN(C)C)cc4)c(OC)cc23)c(Cl)cc1Cl

concentration at 24 h [12]: 28 ng/mL | IC50 [1]: 2.2 nM
SMILES: COc1cc(Nc2c(C#N)cnc3cc(/C=C/c4cccc(CN(C)C)n4)c(OC)cc23)c(Cl)cc1Cl

concentration at 24 h [12]: 36 ng/mL | IC50 [1]: 2.2 nM
SMILES: COc1cc(Nc2c(C#N)cnc3cc(/C=C/c4ccc(CN(C)C)cn4)c(OC)cc23)c(Cl)cc1Cl

IC50 [2]: > 10000 nM | half-life [3]: 11 min | IC50 [4]: 0.4 nM | IC50 [5]: > 10000 nM | IC50 [6]: > 10000 nM | half-life [7]: 33 min | IC50 [8]: > 10000 nM | IC50 [9]: > 10000 nM | half-life [10]: 10 min | IC50 [1]: 2.1 nM
SMILES: COc1cc(Nc2c(C#N)cnc3cc(/C=C/CCN4CCN(C)CC4)c(OC)cc23)c(Cl)cc1Cl
T/C (HT-29): 0.36

half-life [10]: > 30 min | IC50 [1]: 1.7 nM
SMILES: CCN1CCN(CC/C=C/c2cc3ncc(C#N)c(Nc4cc(OC)c(Cl)cc4Cl)c3cc2OC)CC1
